Counter-ions that a name gives are not always drawn. Values belong to the molecule of their own block, whether it stands above or below them.
Experiments:
[1] = In-vitro iontophoretic delivery of P.S.O.S. in the diffusion cell; assay type: in vitro ADME
Method: (b) P.S.O.S. (Potassium Sucrose Octa Sulfate) P.S.O.S., 0.6 ml of 1.5 mg/ml solution in a boric buffer is placed in chamber 16A and boric acid buffer alone is placed in chamber 16C of FIGS. 1, 2 or 3. Using a direct current of 0.5 mA (0.65 mA/cm^2) transport of P.S.O.S is observed up to 5 μg/hr.

[2] = Method: FIG. 5—The iontophoretic sampling was extended to another neutral bioactive molecule: ethanol.
An identical protocol to that employed for glucose experiments is followed. The only difference being in the concentration of ethanol in the dermal side. A concentration of 17 mM was used as this corresponds to a 0.08% solution, the maximum blood alcohol level legally allowed.
Radioactivity was again used to measure the extracted ethanol. The dermal side using radioactive ethanol, [1-14C]

[3] = forearm of a person; compared with in vitro case
[4] = remark: listed apart in the source
Method: Drugs—Clonidine HCl (Sigma Chemical Co., St. Louis, Mo.); Clonidine-HCl (phenyl-4-^3H) of specific activity 90 mCi/mg (Amersham, Arlington Heights, Ill.). […] The non-labelled drugs were dissolved in deionized water to form solutions of 1 mg/ml, with enough labelled drug to achieve an activity of approximately […].
Skin (13)—Full-thickness skin, freshly excised from 11-15 week old female hairless mice (strain Skh:HR-1, Simonsen Laboratory, Gilroy, Calif.).
Testing of the Modeling Cell—The diffusion cell 10 was tested in three ways:
(1) Leakage tests (without current) using dye and silicone rubber than skin; (2) leakage tests using dye and skin (without current); and (3) iontophoretic tests using the drug solutions and skin (with and without current). Procedures (1) and (2) were evaluated by visually inspecting the cell. For procedure (3), 0.6 ml of labelled drug solution was placed in chamber 16A, 0.6 ml of buffered saline was pipetted into chamber 16C, and a constant current of 0.63 mA/cm^2 (with the voltage limited at 9 V) was imposed between the electrodes in the two chambers. The activity of the solutions in chambers 16A and 16C was determined before and after iontophoresis. The activity of the skin 13 and of the samples taken from the receptor chamber was determined post-experimentally. Each experiment lasts approximately 24 hours, ±2 hours, with samples collected hourly. Receptor fluid 17 was magnetically stirred (27), and the collection flow rate was 10 ml/hr. Each procedure was, repeated three times.

[5] = female, Skh:HR-1 hairless, mouse, 1 mg/ml

Structure (SMILES): O=S(=O)([O-])OC[C@H]1O[C@@](COS(=O)(=O)[O-])(O[C@H]2O[C@H](COS(=O)(=O)[O-])[C@@H](OS(=O)(=O)[O-])[C@H](OS(=O)(=O)[O-])[C@H]2OS(=O)(=O)[O-])[C@@H](OS(=O)(=O)[O-])[C@@H]1OS(=O)(=O)[O-].[K+].[K+].[K+].[K+].[K+].[K+].[K+].[K+] [P.S.O.S, Potassium Sucrose Octa Sulfate]
transport of P.S.O.S ([1]; direct current of 0.5 mA (0.65 mA/cm^2), 0.6 ml of 1.5 mg/ml in boric buffer in chamber 16A): up to 5 μg/hr
P.S.O.S transferred ([1]; same experimental configuration, printed 'with a current'): only a few nanograms

passive flux ([2]; ethanol 17 mM on the dermal side, no current): large passive flux
metabolism during iontophoretic sampling ([2]; preliminary experiments): does not seem to be metabolized
Structure (SMILES): CCO [ethanol]
amount of ethanol extracted iontophoretically ([2]; ethanol 17 mM on the dermal side, compared with glucose): far greater than that obtained with glucose
cathodal versus anodal concentration ([2]; preliminary experiments): cathodal concentration is greater than anodal

drug in the buffered saline of chamber 16C [4]: no drug was found
mean rate of diffusion into the receptor phase (passive transport rate) [4, 5]: 0.05 μg/cm^2/hr
rate of penetration through the skin [4, 5]: 15.0 μg/cm^2/hr
labelled drug detected in the buffered saline of chamber 16C ([4]; female, Skh:HR-1 hairless, mouse, 20 h, 1 mg/ml): 5 µg
Structure (SMILES): Clc1cccc(Cl)c1N=C1NCCN1 [clonidine-HCl, Clonidine HCl]
amount of clonidine sampled [3]: comparable to that observed in the in vitro case
